Activity calls are given as the source filed them.
Tests used:
[1] = molecular target: Adenosine receptor A2a (Homo sapiens) (UniProt P29274); experiment: Agonist activity at human A2a receptor at 100 uM to 5 mM
[2] = molecular target: Adrenocorticotropic hormone receptor (Mus musculus) (UniProt Q64326); experiment: Agonist activity at mouse MC2 receptor at 100 uM to 5 mM
[3] = molecular target: Melanocortin receptor 4 (Mus musculus) (UniProt P56450); experiment: Agonist activity at mouse MC4 receptor at 100 uM to 5 mM
Chain of Melanocortin receptor 4 (Mus musculus) (P56450 whole entry): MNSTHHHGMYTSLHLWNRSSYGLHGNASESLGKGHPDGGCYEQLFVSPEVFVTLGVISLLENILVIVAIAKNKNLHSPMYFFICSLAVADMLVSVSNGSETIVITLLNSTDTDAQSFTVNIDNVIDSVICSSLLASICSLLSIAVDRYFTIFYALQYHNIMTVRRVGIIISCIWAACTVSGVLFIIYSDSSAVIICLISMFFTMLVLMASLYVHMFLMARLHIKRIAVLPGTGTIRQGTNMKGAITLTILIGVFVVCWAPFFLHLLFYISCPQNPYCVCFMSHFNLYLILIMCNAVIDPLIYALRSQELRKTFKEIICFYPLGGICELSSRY

[4] = molecular target: T1, Neuropeptide Y receptor type 5 (Homo sapiens) (UniProt Q15761); experiment: Agonist activity at human NPY5 receptor at 100 uM to 5 mM
T1 sequence (whole entry): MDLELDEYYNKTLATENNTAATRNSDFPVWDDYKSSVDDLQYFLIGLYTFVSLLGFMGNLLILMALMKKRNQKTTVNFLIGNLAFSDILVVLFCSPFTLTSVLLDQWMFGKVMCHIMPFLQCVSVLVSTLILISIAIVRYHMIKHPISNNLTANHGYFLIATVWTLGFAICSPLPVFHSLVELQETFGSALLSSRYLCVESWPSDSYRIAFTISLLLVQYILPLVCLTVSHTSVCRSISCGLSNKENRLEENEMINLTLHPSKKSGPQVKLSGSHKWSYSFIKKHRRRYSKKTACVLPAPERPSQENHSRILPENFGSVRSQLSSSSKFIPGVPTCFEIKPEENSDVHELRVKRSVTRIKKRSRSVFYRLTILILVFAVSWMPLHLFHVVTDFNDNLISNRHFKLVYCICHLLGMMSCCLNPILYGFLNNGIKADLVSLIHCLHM

[5] = molecular target: Melanocortin receptor 4 (Homo sapiens) (UniProt P32245); experiment: Agonist activity at human MC4 receptor at 100 uM to 5 mM
Chain of Melanocortin receptor 4 (Homo sapiens) (P32245 whole entry): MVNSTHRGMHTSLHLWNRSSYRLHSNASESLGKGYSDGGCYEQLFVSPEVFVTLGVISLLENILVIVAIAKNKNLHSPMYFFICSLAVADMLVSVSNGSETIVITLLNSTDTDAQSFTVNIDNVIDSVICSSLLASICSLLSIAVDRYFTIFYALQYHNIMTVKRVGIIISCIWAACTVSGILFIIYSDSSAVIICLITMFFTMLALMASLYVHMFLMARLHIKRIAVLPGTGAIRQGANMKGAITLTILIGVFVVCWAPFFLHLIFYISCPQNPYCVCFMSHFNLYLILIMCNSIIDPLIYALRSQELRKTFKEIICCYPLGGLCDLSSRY

[6] = molecular target: T2, Adenosine receptor A3 (Homo sapiens) (UniProt P0DMS8); experiment: Agonist activity at human A3 receptor at 100 uM to 5 mM
T2 sequence (whole entry): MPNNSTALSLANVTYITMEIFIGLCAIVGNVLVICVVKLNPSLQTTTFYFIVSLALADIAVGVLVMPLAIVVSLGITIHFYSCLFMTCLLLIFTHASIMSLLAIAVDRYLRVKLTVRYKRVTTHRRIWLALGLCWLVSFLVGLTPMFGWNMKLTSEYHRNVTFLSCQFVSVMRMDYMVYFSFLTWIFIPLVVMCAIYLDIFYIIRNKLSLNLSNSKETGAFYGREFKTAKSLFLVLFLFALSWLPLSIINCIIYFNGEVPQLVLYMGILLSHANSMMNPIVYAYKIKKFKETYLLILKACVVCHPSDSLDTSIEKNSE

[7] = molecular target: Melanocortin receptor 5 (Mus musculus) (UniProt P41149); experiment: Agonist activity at mouse MC5 receptor at 100 uM to 5 mM
Chain of Melanocortin receptor 5 (Mus musculus) (P41149 whole entry): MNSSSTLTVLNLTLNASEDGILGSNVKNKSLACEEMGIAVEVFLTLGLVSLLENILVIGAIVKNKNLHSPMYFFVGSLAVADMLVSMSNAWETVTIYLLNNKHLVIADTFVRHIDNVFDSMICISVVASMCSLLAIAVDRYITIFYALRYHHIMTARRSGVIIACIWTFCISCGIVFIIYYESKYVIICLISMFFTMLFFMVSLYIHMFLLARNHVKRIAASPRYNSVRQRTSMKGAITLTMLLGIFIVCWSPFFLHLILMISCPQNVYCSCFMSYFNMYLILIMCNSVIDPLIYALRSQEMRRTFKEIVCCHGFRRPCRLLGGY

[8] = molecular target: T3, Muscarinic acetylcholine receptor M1 (Homo sapiens) (UniProt P11229); experiment: Agonist activity at human M1 receptor at 100 uM to 5 mM
T3 sequence (whole entry): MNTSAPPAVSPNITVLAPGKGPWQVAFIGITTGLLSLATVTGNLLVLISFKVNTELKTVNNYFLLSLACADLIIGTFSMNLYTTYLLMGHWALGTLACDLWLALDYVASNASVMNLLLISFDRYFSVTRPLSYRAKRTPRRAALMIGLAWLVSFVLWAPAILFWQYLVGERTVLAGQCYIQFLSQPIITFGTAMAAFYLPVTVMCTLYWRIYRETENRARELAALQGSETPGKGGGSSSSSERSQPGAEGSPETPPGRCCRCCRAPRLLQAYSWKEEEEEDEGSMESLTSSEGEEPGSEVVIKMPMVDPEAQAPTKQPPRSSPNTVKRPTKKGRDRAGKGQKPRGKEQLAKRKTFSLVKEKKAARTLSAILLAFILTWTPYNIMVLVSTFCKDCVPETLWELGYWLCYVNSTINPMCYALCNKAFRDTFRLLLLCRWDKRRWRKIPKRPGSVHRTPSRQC

[9] = molecular target: D(1B) dopamine receptor (Homo sapiens) (UniProt P21918); experiment: Agonist activity at human D5 receptor at 100 uM to 5 mM
Chain of D(1B) dopamine receptor (Homo sapiens) (P21918 whole entry): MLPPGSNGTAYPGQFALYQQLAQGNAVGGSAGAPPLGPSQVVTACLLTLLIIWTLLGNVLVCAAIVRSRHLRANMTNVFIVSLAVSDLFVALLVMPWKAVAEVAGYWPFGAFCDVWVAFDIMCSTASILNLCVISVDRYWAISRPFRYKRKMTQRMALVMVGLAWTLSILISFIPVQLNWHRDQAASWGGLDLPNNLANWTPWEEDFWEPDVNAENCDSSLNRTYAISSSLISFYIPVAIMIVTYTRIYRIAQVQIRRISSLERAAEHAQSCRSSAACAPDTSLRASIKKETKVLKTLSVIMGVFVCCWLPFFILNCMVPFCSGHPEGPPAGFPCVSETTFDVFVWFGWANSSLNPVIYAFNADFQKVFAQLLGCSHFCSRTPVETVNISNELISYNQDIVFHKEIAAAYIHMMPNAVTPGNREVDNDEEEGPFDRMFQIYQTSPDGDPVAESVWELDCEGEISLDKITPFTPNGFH

[10] = molecular target: Melanocyte-stimulating hormone receptor (Homo sapiens) (UniProt Q01726); experiment: Agonist activity at human MC1 receptor at 100 uM to 5 mM
Chain of Melanocyte-stimulating hormone receptor (Homo sapiens) (Q01726 whole entry, looked up): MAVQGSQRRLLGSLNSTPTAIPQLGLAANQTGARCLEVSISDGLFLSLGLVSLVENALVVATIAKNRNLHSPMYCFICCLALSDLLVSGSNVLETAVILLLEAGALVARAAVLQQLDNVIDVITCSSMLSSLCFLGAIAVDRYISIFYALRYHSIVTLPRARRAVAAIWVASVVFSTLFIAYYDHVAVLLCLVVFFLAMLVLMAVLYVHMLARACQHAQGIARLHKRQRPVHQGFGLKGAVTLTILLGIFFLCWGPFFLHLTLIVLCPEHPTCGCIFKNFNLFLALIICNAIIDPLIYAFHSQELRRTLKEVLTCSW

[11] = molecular target: D(1A) dopamine receptor (Homo sapiens) (UniProt P21728); experiment: Agonist activity at human D1 receptor at 100 uM to 5 mM
Chain of D(1A) dopamine receptor (Homo sapiens) (P21728 whole entry): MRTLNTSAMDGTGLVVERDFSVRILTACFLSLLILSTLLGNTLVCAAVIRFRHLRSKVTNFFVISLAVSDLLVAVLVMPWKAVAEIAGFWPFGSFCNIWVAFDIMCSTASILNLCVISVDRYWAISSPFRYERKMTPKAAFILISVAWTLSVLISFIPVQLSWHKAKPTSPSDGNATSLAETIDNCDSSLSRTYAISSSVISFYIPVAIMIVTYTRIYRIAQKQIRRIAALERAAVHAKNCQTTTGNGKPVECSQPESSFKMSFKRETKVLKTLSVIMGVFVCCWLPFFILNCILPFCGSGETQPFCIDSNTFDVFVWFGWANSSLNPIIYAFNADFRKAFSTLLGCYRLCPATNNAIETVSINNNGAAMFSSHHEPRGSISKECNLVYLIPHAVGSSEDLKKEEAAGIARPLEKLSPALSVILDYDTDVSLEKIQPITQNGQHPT

[12] = molecular target: Glucagon receptor (Homo sapiens) (UniProt P47871); experiment: Agonist activity at human Glu receptor at 100 uM to 5 mM
Chain of Glucagon receptor (Homo sapiens) (P47871 whole entry): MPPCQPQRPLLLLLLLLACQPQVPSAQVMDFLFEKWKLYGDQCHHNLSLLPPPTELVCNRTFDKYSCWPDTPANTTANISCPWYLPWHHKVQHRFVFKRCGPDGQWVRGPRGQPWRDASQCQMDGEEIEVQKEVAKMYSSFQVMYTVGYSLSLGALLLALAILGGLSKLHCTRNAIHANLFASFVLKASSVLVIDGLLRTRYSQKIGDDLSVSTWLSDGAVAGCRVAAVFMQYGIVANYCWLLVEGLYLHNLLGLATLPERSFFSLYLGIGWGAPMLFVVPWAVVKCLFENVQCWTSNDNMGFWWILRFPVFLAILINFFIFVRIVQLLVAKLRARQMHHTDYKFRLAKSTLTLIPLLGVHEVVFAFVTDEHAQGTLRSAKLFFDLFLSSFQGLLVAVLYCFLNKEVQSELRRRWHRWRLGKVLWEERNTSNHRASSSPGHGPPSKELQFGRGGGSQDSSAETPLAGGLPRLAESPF

[13] = molecular target: Adrenocorticotropic hormone receptor (Homo sapiens) (UniProt Q01718); experiment: Agonist activity at human MC2 receptor at 100 uM to 5 mM
Chain of Adrenocorticotropic hormone receptor (Homo sapiens) (Q01718 whole entry): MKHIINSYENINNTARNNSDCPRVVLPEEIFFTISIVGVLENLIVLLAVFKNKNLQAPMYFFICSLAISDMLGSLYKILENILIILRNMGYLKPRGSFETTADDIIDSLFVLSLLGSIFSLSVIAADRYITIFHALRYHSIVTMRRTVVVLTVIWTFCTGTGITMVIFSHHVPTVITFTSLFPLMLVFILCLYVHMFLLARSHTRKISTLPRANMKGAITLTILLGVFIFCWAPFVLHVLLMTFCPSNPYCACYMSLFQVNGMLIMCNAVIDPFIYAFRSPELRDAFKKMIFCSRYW

[14] = molecular target: T4, C5a anaphylatoxin chemotactic receptor 1 (Homo sapiens) (UniProt P21730); experiment: Agonist activity at human C5a receptor at 100 uM to 5 mM
T4 sequence (whole entry): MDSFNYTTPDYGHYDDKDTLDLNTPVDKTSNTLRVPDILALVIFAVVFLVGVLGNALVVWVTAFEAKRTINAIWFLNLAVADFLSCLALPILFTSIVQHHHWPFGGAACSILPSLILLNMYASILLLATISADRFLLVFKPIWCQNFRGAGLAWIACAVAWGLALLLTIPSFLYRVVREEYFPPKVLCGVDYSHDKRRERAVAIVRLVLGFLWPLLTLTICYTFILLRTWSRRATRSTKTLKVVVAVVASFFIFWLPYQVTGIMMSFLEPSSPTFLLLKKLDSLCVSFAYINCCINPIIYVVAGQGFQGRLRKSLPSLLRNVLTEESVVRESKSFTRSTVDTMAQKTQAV

Measured: Activity

Chain of Adrenocorticotropic hormone receptor (Mus musculus) (Q64326 whole entry): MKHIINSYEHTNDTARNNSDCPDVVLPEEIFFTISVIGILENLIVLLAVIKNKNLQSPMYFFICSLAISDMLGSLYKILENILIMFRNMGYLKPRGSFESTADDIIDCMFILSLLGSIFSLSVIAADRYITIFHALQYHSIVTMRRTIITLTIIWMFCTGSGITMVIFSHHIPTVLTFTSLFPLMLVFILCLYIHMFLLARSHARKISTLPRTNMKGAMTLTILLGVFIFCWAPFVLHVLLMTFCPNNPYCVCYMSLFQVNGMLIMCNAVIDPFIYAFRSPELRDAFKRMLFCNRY
Chain of Adenosine receptor A2a (Homo sapiens) (P29274 whole entry): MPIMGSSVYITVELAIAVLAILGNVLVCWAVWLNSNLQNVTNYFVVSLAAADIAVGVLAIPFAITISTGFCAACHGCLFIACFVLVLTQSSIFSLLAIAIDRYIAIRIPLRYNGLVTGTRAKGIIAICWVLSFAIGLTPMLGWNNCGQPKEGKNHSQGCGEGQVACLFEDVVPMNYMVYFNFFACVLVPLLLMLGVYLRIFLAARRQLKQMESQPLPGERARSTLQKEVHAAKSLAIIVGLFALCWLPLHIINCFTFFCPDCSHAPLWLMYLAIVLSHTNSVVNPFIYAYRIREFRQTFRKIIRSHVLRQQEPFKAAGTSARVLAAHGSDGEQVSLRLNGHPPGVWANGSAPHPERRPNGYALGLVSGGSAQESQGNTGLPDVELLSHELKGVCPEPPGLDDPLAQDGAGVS

O=c1cc(-c2ccccc2F)oc2ccccc12
inactive: all assays above

CCN(CC)c1ccc(-c2oc3ccccc3c(=O)c2O)cc1
inactive: all assays above

O=c1c(O)c(-c2ccc(O)c(O)c2)oc2ccccc12
inactive: all assays above

O=c1c(O)c(-c2c(F)cccc2Cl)oc2ccccc12
inactive: all assays above

Source: ChEMBL document CHEMBL3351764, “Design, synthesis and biological activity of flavonoid derivatives as selective agonists for neuromedin U 2 receptor” (Bioorg Med Chem, 2014)
